The record followed here is patent US11692194B2, “Modulating expression of polypeptides via new gene switch expression systems” (Precigen, Inc., priority 2017, dated 2023).

Each structure is given as a SMILES string. “Also recorded” adds a separate entry of the source.

Assay [1] relates to inducible IL-12 constructs (XON-61 or XON-62) in EGFRvIII-CAR-T cells. The assay can be described thus: Veledimex ON-OFF cycling of IL-12 in EGFRvIII-CAR-T cells. The assay is classed as cell-based. Here is the method: For each ON-OFF cycle, veledimex was first added (ON) at previously mentioned concentrations (typically between 20-100 nM) to cell cultures for 2-3 days. An aliquot of cells was harvested and analyzed for expression (ON) of various proteins by flow cytometry and/or ELISA at noted time points. Remaining cell culture was then washed and resuspended in complete medium without veledimex (OFF) and cultured for up to 5 days. Aliquots of cells were harvested and analyzed for expression (OFF) at times mentioned by flow cytometry and/or ELISA as noted above. Veledimex ON-OFF cycle(s) can be repeated again with remaining cell culture by repeating the process.
The effect of repeated treatments and withdrawals of veledimex to EGFRvIII-CAR-T cells harboring an inducible IL-12 gene was determined in vitro both in the presence and absence of antigen specific T cell activation by co-culture with AaPCs. In the first cycle (ON-OFF) of ligand treatment, CAR-T cells (10^6/ml) expanded ex vivo by four successive rounds of stimulation with EGFRvIII^+ AaPCs were treated with DMSO or veledimex and cultured in the presence or absence of AaPCs in media containing IL-21 and IL-2. After 48 hours post-treatment, cells were washed thoroughly to remove ligand and cultured in a new culture vessel in media containing IL-21 and IL-2 for 5 days. Culture supernatants harvested between 24-120 hours post-treatment were then analyzed for expression of IL-12 and IFNγ.
In the second cycle (ON-OFF) of ligand treatment, CAR-T cells from cultures treated with DMSO or veledimex in the presence of AaPCs in cycle 1 were collected at 5 days after withdrawal of veledimex (in cycle 1) and subjected to a second cycle of ligand treatment with DMSO or veledimex in the presence or absence of antigen specific T cell activation by co-culture with AaPCs. After 48 hours post-treatment, cells were washed thoroughly to remove ligand and cultured in a new culture vessel in media containing IL-21 plus IL-2 for 5 days. Culture supernatants harvested between 24-120 hours post-treatment were then analyzed for expression of IL-12 and IFNγ.

The subject of assay [2] is RTS-IL-12 in EGFRvIII-CAR T cells. Kind of assay: Veledimex dose-response of IL-12, ELISA. The assay is classed as cell-based. On the procedure:
EGFRvIII-CAR T cells with or without RTS-IL-12 were expanded ex vi by three successive rounds of stimulation with EGFRvIII^+ AaPCs. T cells were then treated with varying doses of veledimex from 0 nM (DMSO control) to 100 nM. At 48 h post veledimex treatment, culture supernatants were harvested analyzed for IL-12 levels by ELISA. EGFRvIII-CAR expression in all groups was confirmed with flow cytometry and was stable with increasing doses of veledimex (data not shown) as expected with CAR expression under control of a constitutive promoter.

Assay [3] has as its system RTS:mbIL15 in CAR T cells. The assay can be described thus: Serine recombinase (SF370) integrated single vector CAR:HER1t+RTS:mbIL15, flow cytometry of mbIL15. The assay is classed as cell-based. On the procedure:
Various DNA plasmids containing serine recombinase attachment sites and components of the gene switch system as depicted in FIG. 17 were transfected to peripheral blood mononuclear cells (PBMC) via nucleofection to redirect T cell specificity. Specifically, 3 single vectors were tested in the presence and absence of a serine recombinase, SF370:
(i) CAR:HER1t+constitutive mbIL15 (positive control)
(ii) CAR:HER1t+promoterless mbIL15 (negative control)
(iii) CAR:HER1t+RTS:mbIL15
The expression of the CAR and mbIL15 was evaluated weekly (at days 1, day 8, day 15 and day 22). Aliquots of cells were treated with either DMSO or veledimex 24-48 h prior to each flow to assess inducible mbIL15 expression. AaPC Clone 1 was added weekly at a 1:1 ratio with CAR+ cells.

Assay [4] relates to RTS-mbIL-15 in CD19 CAR T cells. Kind of assay: Western blot of mbIL-15 expression. The assay is classed as cell-based, human. As to conditions: CD19 CAR+RTS-mbIL-15 cells, veledimex 2-3 days after four rounds of stimulation. Here is the method:
PBMC were nucleofected with plasmids of Sleeping Beauty system to express CD19-specific CAR under constitutive promoter (CD19 CAR alone), or CD19-specific CAR and mbIL-15 both under constitutive promoters (CD19 CAR+constitutive-mbIL-15) or CD19-specific CAR under constitutive promoter and RTS-mbIL-15 (CD19 CAR+RTS-mbIL-15). Nucleofected cells were cultured in presence of AaPC as described in Example 1.
After four rounds of stimulations, cells were cultured in absence (CD19 CAR alone, CD19 CAR+constitutive-mbIL-15 and CD19 CAR+RTS-mbIL-15) or presence (CD19 CAR+RTS-mbIL-15) of veledimex for 2-3 days. Cell lysates were prepared for western blot analysis. Approximately 10 μg lysate/lane of NuPAGE 10% Bis-Tris gel was loaded. Proteins were transferred from gel to a polyvinylidene fluoride (PVDF) membranes using the iBlot® (Life Technologies) semi-dry transfer apparatus. Membrane was blocked using a 5% (w/v) powdered milk solution in a PBS+Tween-20 (PBST; 1×PBS+0.05% Tween-20) solution stained with goat anti-human IL-15 (R&D Systems) primary antibody and rabbit anti-goat IgG HRP (KPL Laboratories) secondary antibody. […]
Image of the western blot were captured on the FluorChem™ E Imager (ProteinSimple, San Jose, Calif.) system using the Digital Darkroom software and AlphaView® software (ProteinSimple). […] In CD19 CAR+constitutive-mbIL-15 positive control, expression of mbIL-15 was detected.

Regarding `CCC[C@@H](N(NC(=O)c1cccc(OC)c1CC)C(=O)c1cc(C)cc(C)c1)C(C)(C)C` [veledimex, N-[(1R)-1-(1,1-dimethylethyl)butyl]-N′-(2-ethyl-3-methoxybenzoyl)-3,5-dimethylbenzohydrazide], the “IL-12 induction in cycle 2 after veledimex versus DMSO in cycle 1” value in assay [1] (48 h post-ligand treatment in cycle 2, with EGFRvIII^+ AaPCs) was “increased IL-12 induction”. Besides, in assay [1] (cycle 1, culture supernatants at 48 h post-treatment), the “IL-12 expression relative to DMSO” value is listed as “increase in IL-12 expression”. In addition, the “levels of IL-12 induction with versus without antigen-specific stimulation” value in assay [1] (cycle 1, presence vs absence of AaPCs) is reported as “enhanced in the presence of AaPC-mediated antigen-specific stimulation; also recorded: significantly lower in the absence of antigen-specific stimulation”. Moreover, the “control of IL-12 expression over two cycles of ligand treatment” value in assay [1] (prolonged culture, repeated addition and withdrawal) is “can be turned ON and OFF repeatedly; also recorded: can regulate IL-12 expression”. Further, the “IL-12 expression after withdrawal of veledimex” value in assay [1] (withdrawal at 48 h post-treatment, presence and absence of AaPCs) is on record as “reduction of IL-12 expression; also recorded: gradually reduced back to the baseline levels; also recorded: went down to baseline levels”. Further, in assay [2] (0 nM to 100 nM, 48 h post treatment), the “IL-12 production versus veledimex dose” value is listed as “dose dependent”. Besides, the “EGFRvIII-CAR expression with increasing doses of veledimex” value in assay [2] (flow cytometry, data not shown) is recorded as “stable”. Besides, in assay [3] (day 22), the “mbIL15 expression after removal of veledimex” value is listed as “complete loss of mbIL15 expression”. Besides, in assay [3] (two weeks post-transfection, ~48 h treatment), the “mbIL-15 expression on veledimex treatment” value is on record as “induction of mbIL-15 expression”. The “mbIL-15 expression by western blot” value in assay [4] is recorded as “strong expression of mbIL-15”.
